In PubChem BioAssay (NCI) one finds TGI and GI50 data, which are given here for eleven molecules.

Among the test systems are SN12C renal; A498 renal; 786-0 renal; HCT-15 colon; U251 CNS; K-562 leukemia; EKVX NSCLC; SNB-19 CNS; SF-539 CNS; OVCAR-5 ovarian; CCRF-CEM leukemia; SR leukemia; SK-MEL-2 melanoma.
Common to all, as to test: growth of human tumour cells (NCI), 48 h

Several values for one entry are separate records, joined by “and”; a condition that tells them apart may be missing. Identical values can stand only once.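 These data come from cells grown in 96-well plates and exposed to compound for 48 hours at five concentrations. GI50 marks 50% less growth. TGI: total growth inhibition.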 Where a SMILES comes first, the peptide text is derived from it. The star is where a group is joined. Boc = CC(C)(C)OC(=O)*; OBn = c1ccc(CO*)cc1

On to `COc1cc2c(cc1OC)CN1CCc3ccccc3CC1C2` (configuration not stated), for which the TGI with SN12C renal, in the experiment with A498 renal, with 786-0 renal, in the experiment with HCT-15 colon, with U251 CNS and in the experiment with K-562 leukemia was more than 100 µM in each case. In addition, the TGI in the experiment with EKVX NSCLC is more than 100 µM; in the experiment on SNB-19 CNS it was more than 100 µM; with SF-539 CNS it was more than 100 µM; with OVCAR-5 ovarian it was more than 100 µM; in the experiment on CCRF-CEM leukemia, more than 100 µM; in the experiment on SR leukemia, 23.5 µM. Besides, the TGI in the experiment with SK-MEL-2 melanoma is more than 100 µM.
Take `CC(C(=O)N1C(=O)N(C(=O)[C@H](C)C(O)c2ccccc2)[C@H](c2ccccc2)[C@H]1c1ccccc1)[C@@H](O)c1ccccc1` (some centres not stated): the TGI in the experiment with SN12C renal is more than 100 µM; in the experiment with A498 renal, more than 100 µM; in the experiment on 786-0 renal, 82.8 µM; in the experiment on HCT-15 colon, more than 100 µM; in the experiment on U251 CNS it was more than 100 µM; with K-562 leukemia, more than 100 µM. Also, the TGI with EKVX NSCLC was 93.4 µM; with SNB-19 CNS it was more than 100 µM; in the experiment on SF-539 CNS, 81.9 µM; with OVCAR-5 ovarian it was 78.3 µM; in the experiment on SR leukemia it was more than 100 µM; in the experiment with SK-MEL-2 melanoma it was 42.6 µM.
Consider `CN1CC(S(=O)(=O)c2ccccc2)CC(S(=O)(=O)c2ccccc2)C1c1ccccc1` (configuration not stated), for which the TGI was 25.7 µM in the experiment on SN12C renal; 31.7 µM in the experiment with A498 renal; 25.5 µM in the experiment on 786-0 renal; 32.2 µM with HCT-15 colon; 25.8 µM in the experiment with U251 CNS; 95.2 µM with K-562 leukemia. For the same molecule, the TGI in the experiment with EKVX NSCLC is 32.6 µM; in the experiment with SNB-19 CNS, 59.6 µM; in the experiment on SF-539 CNS it was 36.9 µM; with OVCAR-5 ovarian, 32.7 µM; with SR leukemia, 78.3 µM; in the experiment on SK-MEL-2 melanoma, 20 µM.
As to `CC(C)C(NC(=O)CNC(=O)C1CCCN1C(=O)C(NC(=O)OC(C)(C)C)C(C)C)C(=O)NCC(=O)OCc1ccccc1` (configuration not stated) (Boc-VPGVG-OBn; configuration not given here), the TGI with SN12C renal, in the experiment on A498 renal, in the experiment with 786-0 renal, in the experiment with HCT-15 colon, in the experiment with U251 CNS and in the experiment with K-562 leukemia was more than 100 µM each time. In addition, the TGI in the experiment with EKVX NSCLC, in the experiment with SNB-19 CNS, in the experiment with SF-539 CNS, in the experiment with OVCAR-5 ovarian, in the experiment on CCRF-CEM leukemia and with SR leukemia was more than 100 µM throughout. Further, the TGI in the experiment on SK-MEL-2 melanoma was more than 100 µM.
In the case of `CCN(CC)c1nc(=O)c(C(=O)C(C)(C)C)c(C(C)(C)C)o1`, the TGI with SN12C renal, in the experiment with A498 renal, in the experiment on 786-0 renal, with HCT-15 colon, in the experiment with U251 CNS and in the experiment with K-562 leukemia was more than 100 µM in each case. For the same molecule, the TGI with EKVX NSCLC, in the experiment on SNB-19 CNS, in the experiment on SF-539 CNS, in the experiment on OVCAR-5 ovarian, in the experiment with CCRF-CEM leukemia and in the experiment on SR leukemia was more than 100 µM throughout. The molecule also showed a TGI in the experiment on SK-MEL-2 melanoma of more than 100 µM.
In the case of `Nc1ccn(CC(CO)CC(c2ccccc2)P(=O)(O)O)c(=O)n1` (configuration not stated), the TGI with SN12C renal, in the experiment on A498 renal, in the experiment with 786-0 renal, with HCT-15 colon, in the experiment with U251 CNS and in the experiment with K-562 leukemia was more than 100 µM each time. In addition, the TGI in the experiment on EKVX NSCLC, in the experiment on SNB-19 CNS, in the experiment on SF-539 CNS, in the experiment on OVCAR-5 ovarian, in the experiment with CCRF-CEM leukemia and in the experiment on SR leukemia was more than 100 µM each time. In the experiment on SK-MEL-2 melanoma, this molecule returned a TGI of more than 100 µM. Further, the GI50 in the experiment with U251 CNS is 28.2 µM and > 100 µM.
With `CC(=O)[C@]1(C)[C@H](C)O[C@](C)(CO)[C@H]1O[Si](C)(C)c1ccccc1`, the TGI was more than 100 µM in the experiment with SN12C renal; more than 100 µM with A498 renal; more than 100 µM in the experiment with 786-0 renal; 84.6 µM with HCT-15 colon; more than 100 µM in the experiment on U251 CNS; more than 100 µM in the experiment on K-562 leukemia. Besides, the TGI with EKVX NSCLC, in the experiment with SNB-19 CNS, in the experiment with SF-539 CNS, with OVCAR-5 ovarian, with CCRF-CEM leukemia and in the experiment on SR leukemia was more than 100 µM throughout. Besides, the TGI in the experiment with SK-MEL-2 melanoma is more than 100 µM.
Turning to `N#Cc1c(-c2ccccc2)c(C#N)c(=S)n(C2OCC(O)C(O)C2O)c1N` (configuration not stated), the TGI in the experiment on SN12C renal, in the experiment on A498 renal, in the experiment on 786-0 renal, with HCT-15 colon, in the experiment on K-562 leukemia and in the experiment on SNB-19 CNS was more than 100 µM each time. Further, the TGI with SF-539 CNS, in the experiment on OVCAR-5 ovarian, with CCRF-CEM leukemia, with SR leukemia and in the experiment with SK-MEL-2 melanoma was more than 100 µM throughout.
Consider `CCOC(=O)NC(C(C(=O)OCC)C(=O)OCC)(C(F)(F)F)C(F)(F)F`, for which the TGI with SN12C renal, with A498 renal, in the experiment on 786-0 renal, in the experiment with HCT-15 colon, in the experiment on U251 CNS and in the experiment with K-562 leukemia was more than 100 µM throughout. Besides, the TGI in the experiment on EKVX NSCLC, with SNB-19 CNS, in the experiment with SF-539 CNS, with OVCAR-5 ovarian, in the experiment on CCRF-CEM leukemia and in the experiment on SR leukemia was more than 100 µM throughout. The molecule further yielded a TGI with SK-MEL-2 melanoma of more than 100 µM.
On to `CSC1CC2C(CC1(C)SC)C2(C)C` (configuration not stated), for which the TGI with A498 renal is more than 100 µM; in the experiment with 786-0 renal, more than 100 µM; in the experiment with HCT-15 colon it was more than 100 µM; with U251 CNS it was more than 100 µM; in the experiment with K-562 leukemia, 81.8 µM; in the experiment on EKVX NSCLC, more than 100 µM. The TGI was more than 100 µM in the experiment with SNB-19 CNS; more than 100 µM in the experiment with SF-539 CNS; more than 100 µM in the experiment with OVCAR-5 ovarian; 84.2 µM in the experiment on CCRF-CEM leukemia; more than 100 µM in the experiment with SR leukemia; 56.8 µM with SK-MEL-2 melanoma.
Turning to `COC(=O)C(CCSc1ccccc1)C(=O)OC`, the TGI with SN12C renal, with A498 renal, with 786-0 renal, in the experiment on HCT-15 colon, with U251 CNS and in the experiment with EKVX NSCLC was more than 100 µM in each case. Moreover, the TGI in the experiment with SF-539 CNS, in the experiment with OVCAR-5 ovarian, in the experiment on CCRF-CEM leukemia, in the experiment with SR leukemia and with SK-MEL-2 melanoma was more than 100 µM each time.
